# Source: ChEMBL document CHEMBL1129040, “Inhibitors of acyl CoA:cholesterol acyltransferase” (J Med Chem, 1996)
# What was measured:
# Cricetinae gen. sp. [1] = test: In vivo activity to reduce liver cholesterol esters (hamster) at 50 mpk; format: functional, Cricetulus griseus
# [2] = molecular target: T1, Sterol O-acyltransferase 1 (Rattus norvegicus) (UniProt O70536); test: (§1) In vitro inhibitory activity against Acyl coenzyme A:cholesterol acyltransferase 1 from rat hepatic microsomes at 10 uM
# T1 sequence (whole entry): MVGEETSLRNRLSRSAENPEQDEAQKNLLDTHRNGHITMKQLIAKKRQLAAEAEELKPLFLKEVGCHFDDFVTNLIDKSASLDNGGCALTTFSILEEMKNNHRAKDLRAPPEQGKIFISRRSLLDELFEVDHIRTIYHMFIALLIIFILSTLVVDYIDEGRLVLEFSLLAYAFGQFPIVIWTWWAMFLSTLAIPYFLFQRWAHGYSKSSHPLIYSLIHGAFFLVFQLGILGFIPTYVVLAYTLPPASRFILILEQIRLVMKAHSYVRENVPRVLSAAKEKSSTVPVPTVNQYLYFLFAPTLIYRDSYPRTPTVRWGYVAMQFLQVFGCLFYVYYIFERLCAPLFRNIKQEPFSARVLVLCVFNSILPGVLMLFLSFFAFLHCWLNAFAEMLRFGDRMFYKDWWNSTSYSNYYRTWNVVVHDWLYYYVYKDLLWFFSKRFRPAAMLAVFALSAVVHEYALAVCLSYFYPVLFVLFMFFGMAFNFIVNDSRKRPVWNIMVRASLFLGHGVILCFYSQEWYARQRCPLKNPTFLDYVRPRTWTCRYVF
# [3] = molecular target: T2, Sterol O-acyltransferase 1 (Rattus norvegicus, UniProt O70536); test: In vitro inhibitory activity against acyl-coenzyme A:cholesterol acyltransferase 1 from rat hepatic microsomes.
# T2 sequence (O70536 whole entry): T1 sequence (whole entry)
# [4] = molecular target: T1, Sterol O-acyltransferase 1 (Rattus norvegicus); test: In vitro inhibitory activity against acyl-coenzyme A:cholesterol acyltransferase 1 from rat hepatic microsomes at 10 uM
# [5] = molecular target: T2, Sterol O-acyltransferase 1; test: as §1
# Cricetinae gen. sp. [6] = test: In vivo activity to reduce liver cholesterol esters (hamster) at 1 mg/kg/day; format: functional, Cricetulus griseus
# Cricetinae gen. sp. [7] = test: In vivo activity to reduce liver cholesterol esters (hamster) at 5 mg/kg/day; format: functional, Cricetulus griseus
Compound,Reduction (Cricetinae gen. sp. [1]) [%],IC50 [3] [nM],inhibition [4] [%],other results
O=C(N[C@@H]1c2ccccc2CC[C@@H]1c1ccncc1)C(c1ccccc1)c1ccccc1,39,,,
O=C(N[C@@H]1c2cccc(O)c2CC[C@@H]1c1ccccc1)C(c1ccccc1)c1ccccc1,0,,,
O=C(NC(Cc1ccc(O)cc1)c1ccc(O)cc1)C(c1ccccc1)c1ccccc1 (stereo not given),40,,,
O=C(NC1CCCc2ccccc21)C(c1ccccc1)c1ccccc1 (stereo not given),,,,inhibition [2]: 37%
O=C(N[C@@H]1c2ccccc2CC[C@@H]1c1ccc(O)cc1)C(c1ccccc1)c1ccccc1,16,350,91,
COc1ccc([C@H]2CCc3ccccc3[C@H]2NC(=O)C(c2ccccc2)c2ccccc2)cc1,0,,,
O=C(N[C@H]1c2ccccc2OC[C@@H]1c1ccc(O)cc1)C(c1ccccc1)c1ccccc1,0,,,
COc1ccc(CC(NC(=O)C(c2ccccc2)c2ccccc2)c2ccc(OC)cc2)cc1 (stereo not given),32,,40,
O=C(N[C@@H]1c2cc(O)ccc2CC[C@@H]1c1ccc(O)cc1)C(c1ccccc1)c1ccccc1,0,,,
O=C(N[C@H]1c2ccccc2CC[C@@H]1c1ccc(O)cc1)C(c1ccccc1)c1ccccc1,58,700,93,
O=C(NC(Cc1ccccc1)c1cccc(O)c1)C(c1ccccc1)c1ccccc1 (stereo not given),19,,,
O=C(N[C@H]1c2ccc(O)cc2CC[C@@H]1c1ccccc1)C(c1ccccc1)c1ccccc1,0,900,92,
O=C(N[C@@H]1c2cc(O)ccc2CC[C@@H]1c1ccccc1)C(c1ccccc1)c1ccccc1,38,2400,84,
O=C(N[C@@H]1CCCC[C@@H]1c1ccc(O)cc1)C(c1ccccc1)c1ccccc1,0,3000,80,
COc1ccc([C@H]2CCCC[C@@H]2NC(=O)C(c2ccccc2)c2ccccc2)cc1,0,100,100,
COc1cccc([C@H]2CCc3ccccc3[C@@H]2NC(=O)C(c2ccccc2)c2ccccc2)c1,0,,,
O=C(NC(Cc1ccc(O)cc1)c1cccc(O)c1)C(c1ccccc1)c1ccccc1 (stereo not given),0,,,
O=C(N[C@H]1c2ccccc2C[C@@H]1c1ccc(O)cc1)C(c1ccccc1)c1ccccc1,52,230,99,
COc1ccc([C@H]2CCCC[C@H]2NC(=O)C(c2ccccc2)c2ccccc2)cc1,20,3000,77,
O=C(N[C@H]1c2ccccc2CCC[C@@H]1c1ccc(O)cc1)C(c1ccccc1)c1ccccc1,61,,,
O=C(NC(Cc1ccc(O)cc1)c1ccccc1)C(c1ccccc1)c1ccccc1 (stereo not given),,,92,
O=C(N[C@@H]1c2ccccc2OC[C@@H]1c1ccc(O)cc1)C(c1ccccc1)c1ccccc1,0,,,

Compound,Reduction (Cricetinae gen. sp. [1]) [%],IC50 [3] [nM],inhibition [4] [%],other results
O=C(N[C@@H]1c2c(O)cccc2CC[C@@H]1c1ccccc1)C(c1ccccc1)c1ccccc1,20,,,
O=C(N[C@@H]1c2ccccc2C[C@@H]1c1ccc(O)cc1)C(c1ccccc1)c1ccccc1,91,100,99,IC50 [5]: 40 nM; Reduction (Cricetinae gen. sp. [6]): 73%; Reduction (Cricetinae gen. sp. [7]): 88%
O=C(N[C@H]1CCCC[C@@H]1c1ccc(O)cc1)C(c1ccccc1)c1ccccc1,0,600,94,
O=C(N[C@H]1c2ccccc2C[C@H]1c1ccc(O)cc1)C(c1ccccc1)c1ccccc1,,,,IC50 [5]: 13000 nM; Reduction (Cricetinae gen. sp. [6]): 0%; Reduction (Cricetinae gen. sp. [7]): 0%
COc1ccccc1[C@H]1CCc2ccccc2[C@H]1NC(=O)C(c1ccccc1)c1ccccc1 (stereo in doubt; trans),0,,,
COc1ccc([C@H]2CCc3ccccc3[C@@H]2NC(=O)C(c2ccccc2)c2ccccc2)cc1,0,,,
O=C(NC1c2ccccc2CC1c1ccc(O)cc1)C(c1ccccc1)c1ccccc1 (racemic),,,,IC50 [5]: 100 nM; Reduction (Cricetinae gen. sp. [6]): 27%; Reduction (Cricetinae gen. sp. [7]): 63%
COc1ccc([C@H]2CCc3ccc(OC)cc3[C@H]2NC(=O)C(c2ccccc2)c2ccccc2)cc1,0,,,
O=C(N[C@H]1c2ccccc2CC[C@@H]1c1ccccc1O)C(c1ccccc1)c1ccccc1,0,,,
O=C(N[C@H]1c2cc(O)ccc2CC[C@@H]1c1ccccc1)C(c1ccccc1)c1ccccc1,78,1300,94,
O=C(N[C@H]1c2ccccc2CC[C@@H]1c1cccc(O)c1)C(c1ccccc1)c1ccccc1,0,700,98,
COc1ccc2c(c1)[C@H](NC(=O)C(c1ccccc1)c1ccccc1)[C@@H](c1ccc(O)cc1)CC2,97,400,98,
COc1ccc(CC(NC(=O)C(c2ccccc2)c2ccccc2)c2ccccc2)cc1 (stereo not given),65,,92,
O=C(N[C@H]1c2cccc(O)c2CC[C@@H]1c1ccccc1)C(c1ccccc1)c1ccccc1,0,,,
COc1cccc([C@H]2CCc3ccccc3[C@H]2NC(=O)C(c2ccccc2)c2ccccc2)c1,0,,,
O=C(N[C@@H]1c2ccccc2CC[C@@H]1c1cccc(O)c1)C(c1ccccc1)c1ccccc1,0,1800,77,
COc1ccc2c(c1)C(NC(=O)C(c1ccccc1)c1ccccc1)CCC2 (stereo not given),0,,,
Nc1ccc([C@H]2CCc3ccccc3[C@H]2NC(=O)C(c2ccccc2)c2ccccc2)cc1,57,,,
O=C(N[C@@H]1c2ccc(O)cc2CC[C@@H]1c1ccccc1)C(c1ccccc1)c1ccccc1,45,900,87,
O=C(N[C@@H]1c2ccccc2CCC[C@@H]1c1ccc(O)cc1)C(c1ccccc1)c1ccccc1,0,,,
COc1ccc(C(Cc2ccccc2)NC(=O)C(c2ccccc2)c2ccccc2)cc1 (stereo not given),69,,88,
O=C(NC(Cc1ccccc1)c1ccc(O)cc1)C(c1ccccc1)c1ccccc1 (stereo not given),69,,95,
